Experimental data as given in the NIST ThermoML archive (doi:10.1021/je060271a).
± gives the expanded uncertainty stated by the source.

Details: 323.15 K, Liquid, Vibrating tube method

CCCCCCC(=O)OCC(COC(=O)CCCCCC)(COC(=O)CCCCCC)COC(=O)CCCCCC [pentaerythritol tetraheptanoate]
Details | mass density [kg/m3]
16867 kPa | 966.6 ± 1.2
16877 kPa | 966.8 ± 1.2
16890 kPa | 966.9 ± 1.2
16900 kPa | 966.7 ± 1.2
16913 kPa | 966.7 ± 1.2
17014 kPa | 966.8 ± 1.2
17028 kPa | 966.8 ± 1.2
17038 kPa | 966.9 ± 1.2
17049 kPa | 967 ± 1.2
17062 kPa | 966.9 ± 1.2
17072 kPa | 966.9 ± 1.2
17084 kPa | 966.9 ± 1.2
17095 kPa | 966.8 ± 1.2
17108 kPa | 966.8 ± 1.2
17119 kPa | 967 ± 1.2
17131 kPa | 966.9 ± 1.2
17142 kPa | 967 ± 1.2
17153 kPa | 966.9 ± 1.2
17164 kPa | 967 ± 1.2
17177 kPa | 967 ± 1.2
17188 kPa | 966.9 ± 1.2
17201 kPa | 966.9 ± 1.2
17212 kPa | 967 ± 1.2
17247 kPa | 967 ± 1.2
17258 kPa | 966.9 ± 1.2
17269 kPa | 967 ± 1.2
17282 kPa | 967 ± 1.2
17293 kPa | 967 ± 1.2
17307 kPa | 967.1 ± 1.2
17318 kPa | 967 ± 1.2
17389 kPa | 967 ± 1.2
17412 kPa | 967.1 ± 1.2
17426 kPa | 967 ± 1.2
17437 kPa | 967.2 ± 1.2
17451 kPa | 967.1 ± 1.2
17462 kPa | 967.1 ± 1.2
17474 kPa | 967.2 ± 1.2
17485 kPa | 967.2 ± 1.2
17499 kPa | 967.2 ± 1.2
17511 kPa | 967 ± 1.2
17536 kPa | 967.2 ± 1.2
17548 kPa | 967.2 ± 1.2
17559 kPa | 967.3 ± 1.2
17573 kPa | 967.2 ± 1.2
17584 kPa | 967.3 ± 1.2
17596 kPa | 967.2 ± 1.2
17610 kPa | 967.2 ± 1.2
17621 kPa | 967.1 ± 1.2
17633 kPa | 967.2 ± 1.2
17647 kPa | 967.2 ± 1.2
17746 kPa | 967.4 ± 1.2
17760 kPa | 967.3 ± 1.2
17772 kPa | 967.3 ± 1.2
17810 kPa | 967.3 ± 1.2
17822 kPa | 967.2 ± 1.2
17836 kPa | 967.4 ± 1.2
17848 kPa | 967.3 ± 1.2
17861 kPa | 967.3 ± 1.2
17873 kPa | 967.3 ± 1.2
17899 kPa | 967.4 ± 1.2
17962 kPa | 967.4 ± 1.2
17976 kPa | 967.5 ± 1.2
17989 kPa | 967.4 ± 1.2
18016 kPa | 967.4 ± 1.2
18029 kPa | 967.5 ± 1.2
18041 kPa | 967.5 ± 1.2
18053 kPa | 967.5 ± 1.2
18066 kPa | 967.5 ± 1.2
18080 kPa | 967.5 ± 1.2
18092 kPa | 967.4 ± 1.2
18107 kPa | 967.5 ± 1.2
18119 kPa | 967.5 ± 1.2
18132 kPa | 967.6 ± 1.2
18146 kPa | 967.5 ± 1.2
18159 kPa | 967.5 ± 1.2
18186 kPa | 967.6 ± 1.2
18524 kPa | 967.9 ± 1.2
18537 kPa | 967.8 ± 1.2
18550 kPa | 967.9 ± 1.2
18565 kPa | 967.6 ± 1.2
18579 kPa | 967.8 ± 1.2
18594 kPa | 967.7 ± 1.2
18608 kPa | 967.8 ± 1.2
18621 kPa | 967.8 ± 1.2
18634 kPa | 967.9 ± 1.2
18650 kPa | 967.8 ± 1.2
18663 kPa | 967.8 ± 1.2
18676 kPa | 967.8 ± 1.2
18692 kPa | 967.9 ± 1.2
18704 kPa | 967.9 ± 1.2
18721 kPa | 967.9 ± 1.2
18734 kPa | 967.9 ± 1.2
18747 kPa | 967.9 ± 1.2
18761 kPa | 967.9 ± 1.2
18777 kPa | 967.8 ± 1.2
18790 kPa | 968 ± 1.2
18803 kPa | 968 ± 1.2
18820 kPa | 968 ± 1.2
18833 kPa | 967.9 ± 1.2
18848 kPa | 968 ± 1.2
18862 kPa | 968 ± 1.2
18876 kPa | 968 ± 1.2
18889 kPa | 968.1 ± 1.2
18906 kPa | 968 ± 1.2
18950 kPa | 968 ± 1.2
18977 kPa | 968.1 ± 1.2
18993 kPa | 967.9 ± 1.2
19007 kPa | 968.1 ± 1.2
19021 kPa | 968.1 ± 1.2
19037 kPa | 968.1 ± 1.2
19051 kPa | 968.2 ± 1.2
19064 kPa | 968.1 ± 1.2
19081 kPa | 968 ± 1.2
19096 kPa | 968.1 ± 1.2
19124 kPa | 968 ± 1.2
19140 kPa | 968.1 ± 1.2
19154 kPa | 968.1 ± 1.2
19168 kPa | 968.1 ± 1.2
19182 kPa | 968.1 ± 1.2
19199 kPa | 968.2 ± 1.2
19213 kPa | 968.2 ± 1.2
19228 kPa | 968.1 ± 1.2
19245 kPa | 968.2 ± 1.2
19259 kPa | 968.2 ± 1.2
19273 kPa | 968.3 ± 1.2
19289 kPa | 968.3 ± 1.2
19303 kPa | 968.3 ± 1.2
19320 kPa | 968.2 ± 1.2
19334 kPa | 968.3 ± 1.2
19351 kPa | 968.3 ± 1.2
19366 kPa | 968.3 ± 1.2
19380 kPa | 968.2 ± 1.2
19394 kPa | 968.4 ± 1.2
19411 kPa | 968.4 ± 1.2
19425 kPa | 968.4 ± 1.2
19440 kPa | 968.3 ± 1.2
19457 kPa | 968.3 ± 1.2
19472 kPa | 968.4 ± 1.2
19489 kPa | 968.3 ± 1.2
19503 kPa | 968.3 ± 1.2
19564 kPa | 968.3 ± 1.2
19579 kPa | 968.3 ± 1.2
19597 kPa | 968.4 ± 1.2
19611 kPa | 968.4 ± 1.2
19629 kPa | 968.5 ± 1.2
19644 kPa | 968.5 ± 1.2
19659 kPa | 968.5 ± 1.2
19674 kPa | 968.5 ± 1.2
19688 kPa | 968.5 ± 1.2
19706 kPa | 968.5 ± 1.2
19721 kPa | 968.5 ± 1.2
19738 kPa | 968.5 ± 1.2
19754 kPa | 968.6 ± 1.2
19769 kPa | 968.5 ± 1.2
19787 kPa | 968.5 ± 1.2
19802 kPa | 968.5 ± 1.2
19816 kPa | 968.5 ± 1.2
19834 kPa | 968.5 ± 1.2
19850 kPa | 968.5 ± 1.2
19864 kPa | 968.6 ± 1.2
19882 kPa | 968.7 ± 1.2
19898 kPa | 968.5 ± 1.2
19913 kPa | 968.7 ± 1.2
19928 kPa | 968.6 ± 1.2
19947 kPa | 968.6 ± 1.2
19977 kPa | 968.5 ± 1.2
19995 kPa | 968.5 ± 1.2
20026 kPa | 968.6 ± 1.2
20044 kPa | 968.7 ± 1.2
20059 kPa | 968.7 ± 1.2
20075 kPa | 968.6 ± 1.2
20094 kPa | 968.8 ± 1.2
20109 kPa | 968.7 ± 1.2
20125 kPa | 968.8 ± 1.2
20141 kPa | 968.8 ± 1.2
20159 kPa | 968.8 ± 1.2
20175 kPa | 968.9 ± 1.2
20193 kPa | 968.8 ± 1.2
20209 kPa | 968.9 ± 1.2
20224 kPa | 968.8 ± 1.2
20240 kPa | 968.9 ± 1.2
20258 kPa | 969 ± 1.2
20274 kPa | 968.8 ± 1.2
20293 kPa | 968.9 ± 1.2
20309 kPa | 968.8 ± 1.2
20325 kPa | 968.8 ± 1.2
20344 kPa | 968.9 ± 1.2
20359 kPa | 968.9 ± 1.2
20375 kPa | 968.9 ± 1.2
20390 kPa | 968.9 ± 1.2
20410 kPa | 968.9 ± 1.2
20426 kPa | 969 ± 1.2
20444 kPa | 969 ± 1.2
20460 kPa | 969 ± 1.2
20476 kPa | 968.9 ± 1.2
20496 kPa | 969 ± 1.2
20512 kPa | 969 ± 1.2
20528 kPa | 969 ± 1.2
20544 kPa | 969 ± 1.2
20564 kPa | 969.1 ± 1.2
20580 kPa | 969 ± 1.2
20596 kPa | 969 ± 1.2
20631 kPa | 969.1 ± 1.2
20648 kPa | 969 ± 1.2
20667 kPa | 969.1 ± 1.2
20684 kPa | 969.2 ± 1.2
20700 kPa | 969.1 ± 1.2
20720 kPa | 969.2 ± 1.2
20737 kPa | 969.1 ± 1.2
20755 kPa | 969.2 ± 1.2
20771 kPa | 969.1 ± 1.2
20791 kPa | 969.2 ± 1.2
20808 kPa | 969.1 ± 1.2
20824 kPa | 969.2 ± 1.2
20841 kPa | 969.2 ± 1.2
20861 kPa | 969.3 ± 1.2
20877 kPa | 969.3 ± 1.2
20894 kPa | 969.3 ± 1.2
20914 kPa | 969.2 ± 1.2
20931 kPa | 969.3 ± 1.2
20985 kPa | 969.2 ± 1.2
21022 kPa | 969.1 ± 1.2
21039 kPa | 969.4 ± 1.2
